Source: patent publication US20230382924A1, “MODULATORS OF CYSTIC FIBROSIS TRANSMEMBRANE CONDUCTANCE REGULATOR” (VERTEX PHARMACEUTICALS INCORPORATED, priority 2020, published 2023)
Like-named read-outs stand apart in the source and are kept apart here.

Target: CFTR (Homo sapiens, UniProt P13569)
Assay: Membrane Potential Dye, Enteroid Assay A
Type: cell-based
Conditions: for EC50: read-out: Ent. A EC50
Summary of the method: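 Signal is reported as % Activity relative to a triple CFTR modulator control (3 μM + 3 μM + 300 nM acute). Read-out: membrane potential fluorescence (20 μM methyl oxonol) monitored for 15 min after chloride-free stimulation. Dye loading took 25 min at room temperature in Bath 1 buffer containing CaCC blockers.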

Sequence of CFTR (P13569 with tags, fused parts or gaps DEL508-508): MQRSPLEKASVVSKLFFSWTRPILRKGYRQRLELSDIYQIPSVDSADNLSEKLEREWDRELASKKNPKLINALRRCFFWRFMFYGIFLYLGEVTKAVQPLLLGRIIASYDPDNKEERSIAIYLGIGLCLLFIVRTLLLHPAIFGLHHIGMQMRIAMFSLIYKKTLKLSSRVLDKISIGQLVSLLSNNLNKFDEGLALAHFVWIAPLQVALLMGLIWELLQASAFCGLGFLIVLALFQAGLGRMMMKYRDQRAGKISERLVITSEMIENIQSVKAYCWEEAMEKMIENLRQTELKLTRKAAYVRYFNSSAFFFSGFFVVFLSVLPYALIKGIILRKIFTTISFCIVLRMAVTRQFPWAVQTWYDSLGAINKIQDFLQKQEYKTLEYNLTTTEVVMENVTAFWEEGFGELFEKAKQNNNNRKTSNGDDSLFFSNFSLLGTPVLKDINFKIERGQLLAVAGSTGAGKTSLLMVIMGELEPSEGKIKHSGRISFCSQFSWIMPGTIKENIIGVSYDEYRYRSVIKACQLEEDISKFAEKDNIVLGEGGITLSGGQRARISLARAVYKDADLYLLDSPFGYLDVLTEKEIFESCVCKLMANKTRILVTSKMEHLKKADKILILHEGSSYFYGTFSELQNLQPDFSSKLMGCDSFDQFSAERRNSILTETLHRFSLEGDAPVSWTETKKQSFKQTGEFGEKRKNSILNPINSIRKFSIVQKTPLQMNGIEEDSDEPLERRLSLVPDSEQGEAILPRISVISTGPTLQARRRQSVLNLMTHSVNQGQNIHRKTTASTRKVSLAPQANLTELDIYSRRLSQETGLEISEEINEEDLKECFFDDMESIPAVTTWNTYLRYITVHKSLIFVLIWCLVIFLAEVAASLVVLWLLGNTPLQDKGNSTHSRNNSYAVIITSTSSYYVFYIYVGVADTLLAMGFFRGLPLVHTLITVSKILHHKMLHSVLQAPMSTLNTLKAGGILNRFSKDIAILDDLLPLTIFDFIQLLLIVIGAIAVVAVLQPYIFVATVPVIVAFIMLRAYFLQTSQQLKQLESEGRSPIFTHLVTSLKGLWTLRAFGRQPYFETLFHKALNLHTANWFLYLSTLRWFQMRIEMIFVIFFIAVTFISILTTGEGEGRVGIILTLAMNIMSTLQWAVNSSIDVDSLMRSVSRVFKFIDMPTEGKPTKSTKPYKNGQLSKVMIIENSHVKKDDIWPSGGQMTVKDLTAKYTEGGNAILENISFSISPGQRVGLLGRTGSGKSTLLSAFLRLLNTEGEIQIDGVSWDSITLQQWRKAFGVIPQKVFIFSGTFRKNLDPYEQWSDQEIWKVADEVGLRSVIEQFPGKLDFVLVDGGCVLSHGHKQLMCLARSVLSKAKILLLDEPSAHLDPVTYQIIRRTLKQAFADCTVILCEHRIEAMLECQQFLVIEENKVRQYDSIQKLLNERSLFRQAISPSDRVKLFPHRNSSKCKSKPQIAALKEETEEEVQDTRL

SMILES	Ent. A Max Activity (Table 8)	Ent. A Max Activity (Table 9)	EC50 (Table 9) [nM]	also measured
CC(C)C[C@@H]1COc2cc(-c3cc(C(F)(F)F)nn3C)nc(n2)NS(=O)(=O)c2cccc(c2)C(=O)N1 [Compound 338]	–	–	–	EC50 (Enteroid Assay A): 3000 to 30000 nM
Cc1cccc(C)c1-c1cc2nc(n1)NS(=O)(=O)c1cccc(c1)C(=O)NC(C(F)(F)F)CO2 (stereo not drawn) [Compound 171]	+ (+ is <30%)	–	–	–
Cc1cccc(C)c1-c1cc2nc(n1)NS(=O)(=O)c1cccc(c1)C(=O)NC1CC(CN(CCC3(C(F)(F)F)CC3)C1)O2 (stereo not drawn) [Compound 194]	–	–	–	EC50 (Enteroid Assay A): 1000 to 3000 nM
Cc1cccc(C)c1-c1cc2nc(n1)NS(=O)(=O)c1cccc(c1)C(=O)N[C@@H](CCC(F)(F)F)CO2 (stereo in doubt) [Compound 189]	+ (+ is <30%)	–	–	EC50 (Table 8): 1000 to 3000 nM
Cc1cccc(C)c1-c1cc2nc(n1)NS(=O)(=O)c1cccc(c1)C(=O)NCC(c1ccc(C3CC3)cc1)O2 (stereo not drawn) [Compound 268]	+++ (+++ is >60%)	–	–	EC50 (Table 8): < 1000 nM
Cc1cccc(C)c1-c1cc2nc(n1)NS(=O)(=O)c1ccccc1C(=O)N[C@H](C)[C@@H](c1ccc(C(C)(C)C)cc1)O2 [Compound 282]	–	+ (+ is <30%)	–	–
Cc1cccc(C)c1-c1cc2nc(n1)NS(=O)(=O)c1cccc(c1)C(=O)N[C@@H]1CCCCC1O2 (stereo in doubt) [Compound 487]	–	–	–	Ent. A Max Activity (Enteroid Assay A): +++ (+++ is >600%); EC50 (Enteroid Assay A): < 1000 nM
Cc1cccc(C)c1-c1cc2nc(n1)NS(=O)(=O)c1cccc(c1)C(=O)NCC(C1CCN(C(=O)OC(C)(C)C)CC1)O2 (stereo not drawn) [Compound 248]	+++ (+++ is >60%)	–	–	EC50 (Table 8): < 1000 nM
Cc1cccc(C)c1-c1cc2nc(n1)NS(=O)(=O)c1cccc(c1)C(=O)NC1(CCN(C(C)C)CC1)CO2 [Compound 175]	–	+ (+ is <30%)	3000 to 30000	–
Cc1cccc(C)c1-c1cc2nc(n1)NS(=O)(=O)c1cccc(c1)C(=O)NCC(C#CC(C)(C)C)O2 (stereo not drawn) [Compound 297]	–	++ (++ is 30-60%)	< 1000	–
Cc1ccc(C2CNC(=O)c3cccc(c3)S(=O)(=O)Nc3nc(cc(-c4c(C)cccc4C)n3)O2)cc1 (stereo not drawn) [Compound 406]	+ (+ is <30%)	–	–	–
Cc1cccc(C)c1-c1cc2nc(n1)NS(=O)(=O)c1cccc(c1)C(=O)NCC(c1ccc(C(F)(F)C(F)(F)F)cc1)O2 (stereo not drawn) [Compound 22, 6-(2,6-Dimethylphenyl)-2,2-dioxo-10-[4-(1,1,2,2,2-pentafluoroethyl)phenyl]-9-oxa-2λ^6-thia-3,5,12,19-tetrazatricyclo[12.3.1.14,8]nonadeca-1(18),4(19),5,7,14,16-hexaen-13-one]	–	+++ (+++ is >60%)	< 1000	–
CCC[C@H]1NC(=O)c2cccc(c2)S(=O)(=O)Nc2nc(cc(-c3c(C)cccc3C)n2)O[C@H]1c1ccc(C(C)(C)C)cc1 [Compound 226]	–	+++ (+++ is >60%)	< 1000	–
Cc1cccc(C)c1-c1cc2nc(n1)NS(=O)(=O)c1cccc(c1)C(=O)NC[C@@H](c1ccc(CCC3(C(F)(F)F)CC3)cc1)O2 [Compound 145]	–	++ (++ is 30-60%)	< 1000	–
Cc1cccc(C)c1-c1cc2nc(n1)NS(=O)(=O)c1cccc(c1)C(=O)NCC1(CCN(C(=O)C3CSCCN3C(=O)OC(C)(C)C)CC1)CO2 (stereo not drawn) [Compound 471]	–	–	–	Ent. A Max Activity (Enteroid Assay A): ++ (++ is 30-60%)
Cc1cnn(C)c1-c1cc2nc(n1)NS(=O)(=O)c1cccc(c1)C(=O)N[C@H](CC(C)C)CO2 [Compound 179]	–	++ (++ is 30-60%)	3000 to 30000	–
Cc1cccc(C)c1-c1cc2nc(n1)NS(=O)(=O)c1cc(cc(C3=CCCCC3)c1)C(=O)N[C@H](CC(C)C)CO2 [Compound 139]	+ (+ is <30%)	–	–	–
Cc1cccc(C)c1-c1cc2nc(n1)NS(=O)(=O)c1cccc(c1)C(=O)NCC(c1ccc(C3(C(F)(F)F)CC3)cc1)O2 (single isomer, unassigned) [Compound 10, 6-(2,6-dimethylphenyl)-2,2-dioxo-10-[4-[1-(trifluoromethyl)cyclopropyl]phenyl]-9-oxa-2λ^6-thia-3,5,12,19-tetrazatricyclo[12.3.1.14,8]nonadeca-1(18),4(19),5,7,14,16-hexaen-13-one]	–	–	–	EC50 (Table 8): < 1000 nM
Cc1cccc(C)c1-c1cc2nc(n1)NS(=O)(=O)c1cccc(c1)C(=O)NCC1(CCN(C(=O)c3c(C)c4ccccc4n3C)CC1)CO2 [Compound 455]	–	–	–	Ent. A Max Activity (Enteroid Assay A): ++ (++ is 30-60%); EC50 (Enteroid Assay A): 1000 to 3000 nM
CCC(CC)[C@@H]1COc2cc(-c3c(C)cccc3C)nc(n2)NS(=O)(=O)c2cccc(c2)C(=O)N1 [Compound 386]	+++ (+++ is >60%)	–	–	EC50 (Table 8): < 1000 nM
CC[C@H]1NC(=O)c2cccc(c2)S(=O)(=O)Nc2nc(cc(-c3c(C)cccc3C)n2)O[C@@H]1c1ccc(C(C)(C)C)cc1 [Compound 133]	–	+++ (+++ is >60%)	< 1000	–
Cc1cccc(C)c1-c1cc2nc(n1)NS(=O)(=O)c1cccc(c1)C(=O)NCC1(CCCCC1)CO2 [Compound 205]	–	–	–	Ent. A Max Activity (Enteroid Assay A): +++ (+++ is >600%); EC50 (Enteroid Assay A): < 1000 nM
